ChEMBL document CHEMBL1201862, “PubChem BioAssay data set” (2004)
Structures can show the parent of a compound that is named as a salt. Calls of active or inactive are those of the source.

What was measured:
Coagulation factor XII = biological target: T1, Coagulation factor XII (Homo sapiens, UniProt P00748); assay: Factor XIIa Dose Response Confirmation from Single Well HTS. [Related pubchem assays (depositor defined):AID701]; type: functional
T1 sequence (P00748 whole entry): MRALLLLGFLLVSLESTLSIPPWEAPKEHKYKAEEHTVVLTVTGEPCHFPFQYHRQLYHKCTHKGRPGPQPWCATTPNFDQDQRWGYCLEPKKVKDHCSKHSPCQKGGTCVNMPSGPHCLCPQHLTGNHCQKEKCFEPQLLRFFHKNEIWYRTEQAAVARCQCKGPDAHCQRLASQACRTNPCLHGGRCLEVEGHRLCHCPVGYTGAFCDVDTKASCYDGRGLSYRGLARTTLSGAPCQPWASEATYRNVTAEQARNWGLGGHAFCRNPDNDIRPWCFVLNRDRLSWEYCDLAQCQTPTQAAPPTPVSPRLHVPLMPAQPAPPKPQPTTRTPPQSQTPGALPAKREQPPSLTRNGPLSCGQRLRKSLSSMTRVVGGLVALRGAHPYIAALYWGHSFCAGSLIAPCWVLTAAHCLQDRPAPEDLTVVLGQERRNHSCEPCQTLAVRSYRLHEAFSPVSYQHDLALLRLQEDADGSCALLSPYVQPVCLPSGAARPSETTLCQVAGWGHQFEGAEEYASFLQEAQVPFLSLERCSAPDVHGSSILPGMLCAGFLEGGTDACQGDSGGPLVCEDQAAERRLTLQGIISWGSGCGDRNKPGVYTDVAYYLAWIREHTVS

[1] = HEp-2 cell cytotoxicity, dose response, cytotoxicity control for RSV inhibitor project, HTS (AID 2410); type: functional; conditions: human respiratory syncytial virus
HEK293 = assay: inhibitors of LMP1-driven NF-kB reporter, dose response, cell-based, HEK293, luciferase, cherry-pick (AID 588343); type: functional; conditions: Homo sapiens
[2] = inhibitors of intracellular T. cruzi replication, confirmation, NIH3T3 host cells, beta-gal luminescence (AID 2044); type: functional, cell-based;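 further: intracellular parasites grown in NIH/3T3 mouse fibroblasts as host cells; luminescent beta-galactosidase reporter signal from transgenic T. cruzi replicating inside host cells; inhibitors lower the luminescence signal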
Prothrombin = Prothrombin (Bos taurus, UniProt P00735); assay: thrombin inhibition, dose response, biochemical, fluorescence polarization, uHTS hits (AID 602369); type: functional
[3] = biological target: 26S proteasome non-ATPase regulatory subunit 14 (Homo sapiens, UniProt O00487); assay: inhibition of proteasome subunit RPN11 – biochemical, fluorescence polarization, uHTS hits, confirmation (AID 602368); type: functional
Chain of 26S proteasome non-ATPase regulatory subunit 14 (O00487 whole entry): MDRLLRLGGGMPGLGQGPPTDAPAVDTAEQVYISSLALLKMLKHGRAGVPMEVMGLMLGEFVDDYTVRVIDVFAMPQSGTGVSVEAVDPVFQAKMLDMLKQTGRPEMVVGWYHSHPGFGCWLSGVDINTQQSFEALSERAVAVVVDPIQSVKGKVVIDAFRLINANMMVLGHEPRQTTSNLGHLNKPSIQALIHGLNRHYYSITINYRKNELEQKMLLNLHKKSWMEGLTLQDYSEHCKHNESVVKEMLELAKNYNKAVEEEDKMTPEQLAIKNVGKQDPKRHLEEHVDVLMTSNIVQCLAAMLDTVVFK

[4] = biological target: 72 kDa type IV collagenase (Homo sapiens, UniProt P08253); assay: Dose Response validation of uHTS RPN11 inhibitor hits using a MMP-2 Fluorescence assay.; type: functional
Chain of 72 kDa type IV collagenase (P08253 whole entry): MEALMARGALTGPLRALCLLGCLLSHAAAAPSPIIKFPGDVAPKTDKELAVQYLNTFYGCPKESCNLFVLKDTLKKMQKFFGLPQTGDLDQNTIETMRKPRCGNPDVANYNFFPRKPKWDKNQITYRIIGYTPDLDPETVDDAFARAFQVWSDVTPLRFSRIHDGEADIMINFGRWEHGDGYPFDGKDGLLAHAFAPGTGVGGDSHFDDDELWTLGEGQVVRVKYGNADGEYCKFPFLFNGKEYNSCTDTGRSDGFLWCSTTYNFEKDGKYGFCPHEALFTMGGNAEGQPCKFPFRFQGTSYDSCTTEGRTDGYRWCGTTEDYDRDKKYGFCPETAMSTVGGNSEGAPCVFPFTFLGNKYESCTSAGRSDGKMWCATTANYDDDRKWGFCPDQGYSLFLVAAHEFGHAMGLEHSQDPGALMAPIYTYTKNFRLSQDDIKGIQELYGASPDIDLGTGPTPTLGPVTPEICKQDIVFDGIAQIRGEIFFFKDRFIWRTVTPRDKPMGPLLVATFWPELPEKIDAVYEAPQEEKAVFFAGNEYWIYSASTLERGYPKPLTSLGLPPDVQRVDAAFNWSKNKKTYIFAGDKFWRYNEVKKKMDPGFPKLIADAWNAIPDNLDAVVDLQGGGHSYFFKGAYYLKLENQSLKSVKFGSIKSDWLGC

[5] = cytotoxicity toward NIH3T3 fibroblasts, dose response, counter-screen, cell-based, ATP luminescence, mouse fibroblasts (AID 2010); type: functional;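 further: cells exposed to compound for about 90 hours before reading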
[6] = biological target: G-protein coupled receptor 55 (Homo sapiens, UniProt Q9Y2T6); assay: GPR55 antagonists blocking LPI-driven arrestin recruitment, primary screen, imaging, U2OS, beta-arrestin-GFP, LPI agonist (AID 2013); type: functional;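 further: antagonist potency measured as reduced agonist-driven arrestin aggregation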
Chain of G-protein coupled receptor 55 (Q9Y2T6 whole entry, the tested form may be a part): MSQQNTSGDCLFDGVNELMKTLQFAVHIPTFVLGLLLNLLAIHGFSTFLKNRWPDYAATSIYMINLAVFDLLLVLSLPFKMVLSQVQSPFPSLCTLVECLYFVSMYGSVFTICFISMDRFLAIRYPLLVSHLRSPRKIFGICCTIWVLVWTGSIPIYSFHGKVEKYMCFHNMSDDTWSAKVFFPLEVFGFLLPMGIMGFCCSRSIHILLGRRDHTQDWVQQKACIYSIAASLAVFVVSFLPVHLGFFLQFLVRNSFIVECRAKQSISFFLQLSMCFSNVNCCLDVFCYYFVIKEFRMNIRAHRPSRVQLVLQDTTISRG

[7] = Fluorescence-based cell-based high throughput dose response assay for inhibitors of the interaction of nucleotide-binding oligomerization domain containing 2 (NOD2) and the receptor-interacting serine-threonine kinase 2 (RIPK2).; type: functional, Homo sapiens; conditions: Homo sapiens
[8] = control 3'UTR Renilla luciferase suppression, dose response, counter-screen for Shn3 inhibitor project, cell-based, Clone20-Shn3RL, cherry-picked (AID 624133); type: functional
BJ [9] = assay: cells; type: functional, cell-based; conditions: Homo sapiens
BJ [10] = assay: cytotoxicity toward Ras-transformed BJeLR fibroblasts, dose response, cell-based, alamar blue fluorescence, cherrypicked samples (AID 2631); type: functional; conditions: Homo sapiens;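 further: confirmatory dose-response assay in RAS-dependent BJ fibroblasts engineered with TERT, LT and ST, with cytotoxicity read by fluorescence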
Vero [11] = assay: cells; type: functional; conditions: Chlorocebus sabaeus
[12] = cytotoxicity toward DRD oncogenic fibroblasts, dose response, cell-based, non-viral oncogenic, luminescence (AID 1934); type: functional; conditions: Homo sapiens
BJ [13] = assay: cytotoxicity toward BJ-TERT fibroblasts, dose response, cell-based, RAS-independent, luminescence (AID 1933); type: functional; conditions: Homo sapiens
[14] = Shn3 3'UTR reporter inhibitors, dose response, cell-based, Clone20 osteoblasts, firefly luciferase, cherry-picked (AID 624132); type: functional;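 further: firefly luciferase luminescence from reporter carrying the Shn3 3'UTR in osteoblasts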
[15] = HepG2 cell cytotoxicity, dose response, cytotoxicity control for Shn3 inhibitor project, CellTiter-Glo, cherry-picked (AID 624134); type: functional, cell-based
BJ [16] = assay: cytotoxicity toward BJ-TERT-LT-ST fibroblasts, dose response, cell-based, RAS-independent, luminescence (AID 1935); type: functional; conditions: Homo sapiens;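 further: BJ fibroblasts immortalized with TERT plus LT and ST oncogenes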
Estrogen receptor beta [17] = biological target: T2, Estrogen receptor beta (Homo sapiens, UniProt Q92731);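 further: recombinant ER-beta bound to coactivator SRC1 peptide in presence of estradiol agonist; inhibitors block coactivator peptide binding and lower the FRET signal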
T2 sequence (Q92731 whole entry): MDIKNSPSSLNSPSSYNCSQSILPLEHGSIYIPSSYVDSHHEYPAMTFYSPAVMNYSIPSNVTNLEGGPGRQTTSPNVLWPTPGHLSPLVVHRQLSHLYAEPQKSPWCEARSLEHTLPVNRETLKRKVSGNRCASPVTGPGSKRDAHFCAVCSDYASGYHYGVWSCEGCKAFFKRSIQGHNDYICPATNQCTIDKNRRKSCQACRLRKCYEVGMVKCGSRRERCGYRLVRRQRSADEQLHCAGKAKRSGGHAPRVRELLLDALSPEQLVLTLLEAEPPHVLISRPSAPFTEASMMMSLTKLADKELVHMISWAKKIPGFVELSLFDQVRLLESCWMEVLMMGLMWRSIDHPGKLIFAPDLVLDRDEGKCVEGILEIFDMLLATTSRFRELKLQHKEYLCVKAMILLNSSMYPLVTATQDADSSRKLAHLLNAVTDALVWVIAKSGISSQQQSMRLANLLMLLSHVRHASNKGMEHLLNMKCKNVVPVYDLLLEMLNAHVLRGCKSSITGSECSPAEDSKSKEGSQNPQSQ

Estrogen receptor beta [18] = biological target: T2, Estrogen receptor beta; assay: ERβ–SRC-3 coactivator interaction inhibitors, confirmation, orthogonal assay, biochemical, ELISA, streptavidin-HRP readout (AID 1060)
[19] = cytotoxicity in HEK-293T cells, dose response, cytotoxicity control for TCR NF-kB inhibitor project, luminescence, T-cell screen hits (AID 489026); type: functional, cell-based;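 further: cells exposed to compound about 14 hours before the viability readout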
[20] = biological target: Luciferin 4-monooxygenase (Photinus pyralis, UniProt P08659); assay: firefly luciferase enzyme inhibitors, dose response, biochemical, luminescence (AID 1891)
Chain of Luciferin 4-monooxygenase (P08659 whole entry): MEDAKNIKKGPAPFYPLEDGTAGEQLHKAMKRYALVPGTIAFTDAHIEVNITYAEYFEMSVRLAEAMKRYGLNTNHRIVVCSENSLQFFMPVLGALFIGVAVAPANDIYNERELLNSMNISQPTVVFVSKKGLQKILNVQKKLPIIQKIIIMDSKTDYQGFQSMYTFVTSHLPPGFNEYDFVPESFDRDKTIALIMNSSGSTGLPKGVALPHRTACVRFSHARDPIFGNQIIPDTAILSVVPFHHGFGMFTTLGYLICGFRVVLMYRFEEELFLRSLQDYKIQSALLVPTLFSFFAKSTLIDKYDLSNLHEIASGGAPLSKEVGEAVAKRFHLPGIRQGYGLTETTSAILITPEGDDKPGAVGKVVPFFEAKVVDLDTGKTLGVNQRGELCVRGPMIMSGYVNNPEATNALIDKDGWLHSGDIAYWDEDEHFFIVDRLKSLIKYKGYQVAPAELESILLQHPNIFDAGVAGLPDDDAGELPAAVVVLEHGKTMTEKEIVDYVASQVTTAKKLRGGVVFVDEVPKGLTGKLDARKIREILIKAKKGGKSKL

[21] = Luminescence Cell-Based Dose Confirmation HTS to Identify Inhibitors of Platelet Dense Granule Release. [Related pubchem assays: 1663 (Primary HTS), 1678 (Summary of Project)]; type: functional
Melanocortin receptor 4 = Melanocortin receptor 4 (Homo sapiens, UniProt P32245); type: functional, cell-based;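 further: Cell-based assay with luminescence read-out, confirmatory dose-response testing for agonist activity of biased ligands at MC4R; human U2OS cells with tagged receptor and beta-arrestin; potency of agonists that increase receptor coupling to beta-arrestin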
Chain of Melanocortin receptor 4 (P32245 whole entry): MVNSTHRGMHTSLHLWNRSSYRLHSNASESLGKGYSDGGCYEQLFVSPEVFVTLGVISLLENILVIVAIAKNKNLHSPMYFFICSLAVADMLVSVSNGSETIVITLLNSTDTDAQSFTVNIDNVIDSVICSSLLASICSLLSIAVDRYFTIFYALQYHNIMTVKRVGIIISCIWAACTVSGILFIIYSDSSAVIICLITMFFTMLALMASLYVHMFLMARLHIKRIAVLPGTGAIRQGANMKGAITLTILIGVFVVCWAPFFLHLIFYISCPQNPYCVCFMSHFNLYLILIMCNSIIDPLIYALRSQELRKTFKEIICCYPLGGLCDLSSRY

cells = type: functional
[22] = HepG2 cell cytotoxicity, dose response, cytotoxicity control for non-replicating M. tuberculosis project (AID 489018); type: functional; conditions: Mycobacterium tuberculosis
[23] = Vero E6 cell cytotoxicity, dose response, cytotoxicity control for non-replicating M. tuberculosis project, secondary assay (AID 492998); type: functional, VeroE6; conditions: Vero C1008
Nonstructural protein 1 = Nonstructural protein 1 (Influenza A virus, UniProt Q194T2); type: functional, Influenza A virus (A/California/07/2009(H1N1))
Chain of Nonstructural protein 1 (Q194T2 whole entry): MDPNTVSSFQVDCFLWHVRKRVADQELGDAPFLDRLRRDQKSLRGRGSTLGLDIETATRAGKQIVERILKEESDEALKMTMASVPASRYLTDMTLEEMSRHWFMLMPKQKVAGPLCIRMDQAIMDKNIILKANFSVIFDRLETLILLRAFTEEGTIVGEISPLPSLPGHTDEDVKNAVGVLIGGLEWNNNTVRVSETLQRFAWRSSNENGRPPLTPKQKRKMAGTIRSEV

[24] = THP-1 cell cytotoxicity, dose response, cytotoxicity control for non-replicating M. tuberculosis project (AID 489025); type: functional
[25] = biological target: T3, Ubiquitin-conjugating enzyme E2 N (Homo sapiens, UniProt P61088); type: functional;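 further: Dose-response confirmation in a TR-FRET assay detecting UBC13-driven polyubiquitin chain formation, inhibition measured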
T3 sequence (P61088 whole entry): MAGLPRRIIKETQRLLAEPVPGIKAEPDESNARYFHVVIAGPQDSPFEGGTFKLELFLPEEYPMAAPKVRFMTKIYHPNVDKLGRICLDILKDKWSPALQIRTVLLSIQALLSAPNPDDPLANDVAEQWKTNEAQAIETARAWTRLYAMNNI

[26] = biological target: T4, Low molecular weight phosphotyrosine protein phosphatase (Homo sapiens, UniProt P24666); type: functional; conditions: read-out: IC50_Mean;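 further: Dose-response confirmation assay measuring inhibition of LMPTP enzyme activity by fluorescence intensity read-out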
T4 sequence (P24666 whole entry): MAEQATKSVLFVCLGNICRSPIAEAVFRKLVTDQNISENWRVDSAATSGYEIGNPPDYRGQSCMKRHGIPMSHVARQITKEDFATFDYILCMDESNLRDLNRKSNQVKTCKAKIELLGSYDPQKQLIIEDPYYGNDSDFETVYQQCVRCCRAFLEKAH

Vero [27] = assay: cells; type: functional, cell-based; conditions: Chlorocebus sabaeus
[28] = biological target: Heat shock protein HSP 90-alpha (Homo sapiens, UniProt P07900); type: functional, organism-based
[29] = Luminescence Cell-Based Dose Response HTS to Identify Activators of Luciferase Translation or Activity in H4 […] Cells. [Related pubchem assays: 1829 (Project Summary), 1814 (Primary HTS)]; type: functional
H4 = assay: Luminescence Cell-Based Dose Response HTS to Identify Activators of 5'UTR Stem-Loop Driven Prion Protein mRNA Translation in H4 Neuroglioblastoma Cells. [Related pubchem assays: 1829 (Project Summary), 1814 (Primary HTS)]; type: functional; conditions: Homo sapiens
[30] = biological target: Eukaryotic translation initiation factor 4E (Mus musculus, UniProt P63073); assay: eIF4E–eIF4G protein interaction inhibitors, dose response, biochemical, TR-FRET (AID 855); type: functional;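 further: potency for disrupting eIF4E binding to eIF4GI seen as loss of FRET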
Chain of Eukaryotic translation initiation factor 4E (P63073 whole entry): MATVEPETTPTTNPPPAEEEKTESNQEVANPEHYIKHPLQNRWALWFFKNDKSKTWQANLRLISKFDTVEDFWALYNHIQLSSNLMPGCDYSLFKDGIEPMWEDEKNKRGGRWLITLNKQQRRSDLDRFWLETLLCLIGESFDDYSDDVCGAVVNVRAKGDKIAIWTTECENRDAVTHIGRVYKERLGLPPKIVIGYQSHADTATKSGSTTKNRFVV

[31] = biological target: T5, High affinity choline transporter 1 (Homo sapiens, UniProt Q9GZV3); assay: CHT inhibitors, dose response, cell-based, 5-point CRC, membrane potential dye (AID 504840); type: functional
T5 sequence (Q9GZV3 whole entry): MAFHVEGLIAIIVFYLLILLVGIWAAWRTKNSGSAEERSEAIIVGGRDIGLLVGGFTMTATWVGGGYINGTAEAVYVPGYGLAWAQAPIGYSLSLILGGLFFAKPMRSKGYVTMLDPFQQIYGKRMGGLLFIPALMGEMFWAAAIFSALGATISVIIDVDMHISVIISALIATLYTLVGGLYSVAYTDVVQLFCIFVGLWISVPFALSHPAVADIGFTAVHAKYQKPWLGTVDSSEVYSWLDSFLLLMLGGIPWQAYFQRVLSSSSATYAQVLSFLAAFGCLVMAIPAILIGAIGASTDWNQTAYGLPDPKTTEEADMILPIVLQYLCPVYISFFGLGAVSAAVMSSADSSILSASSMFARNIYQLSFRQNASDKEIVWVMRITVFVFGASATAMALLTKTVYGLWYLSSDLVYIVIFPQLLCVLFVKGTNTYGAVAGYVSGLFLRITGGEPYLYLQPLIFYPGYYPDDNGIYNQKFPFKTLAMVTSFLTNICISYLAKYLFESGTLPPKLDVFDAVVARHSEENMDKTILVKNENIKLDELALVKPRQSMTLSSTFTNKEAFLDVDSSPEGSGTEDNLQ

[32] = Luminescence Cell-Based Dose Confirmation HTS to Identify Activators of 5'UTR Stem-Loop Driven Alpha-Synuclein mRNA Translation in H4 Neuroglioblastoma Cells. [Related pubchem assays: 1829 (Project Summary), 1814 (Primary HTS)]; type: functional

With O=C(NCc1ccccn1)c1cn(CCc2ccccc2)nn1 the IC50 (Coagulation factor XII) was > 50 µM (inactive).
With O=C(Nc1nc2n(n1)C(c1ccc(Cl)cc1)CC(c1ccc(Cl)cc1)N2)c1ccco1 (stereo not given) the CC50 [1] was 12.8 µM (active) and the IC50 (Coagulation factor XII) was > 50 µM (inactive).
With OC(CCCN1CCCCC1)(c1ccccc1)c1ccccc1 [DIPHENIDOL HYDROCHLORIDE] the AC50 (HEK293) was 323 µM (active).
For Cc1ccc(-c2ccc(/C=C3\SC(N4CCOCC4)=NC3=O)o2)cc1, the EC50 [2] was 0.655 µM (active), the IC50 (Prothrombin) was 7.72 µM (active) and the IC50 [3] was 9.69 µM (active). For the same compound, the IC50 [4] was > 100 µM (inactive) and the EC50 [5] was 17.1 µM (active).
With CC(=O)c1ccc(OC(=O)c2ccc(Br)o2)cc1 the IC50 (Coagulation factor XII) was 18.5 µM (active).
In the case of CCc1ccc(C(=O)NC(=S)Nc2ccccc2N2CCOCC2)cc1, the IC50 [6] is reported as 1.2 µM (active).
With CCN(CC)CCN1C(=O)/C(=C\c2ccc(Cl)c([N+](=O)[O-])c2)S/C1=N\c1ccc(OC)cc1 the IC50 [7] was 2.75 µM (active), the AC50 [8] was 10.4 µM (active) and the EC50 (BJ [9]) was 4.01 µM (active). The EC50 (BJ [10]) was 0.537 µM (active), the CC50 (Vero [11]) was 15.7 µM (active) and the EC50 [12] was 2.86 µM (active). The EC50 (BJ [13]) was 2.1 µM (active), the AC50 [14] was 2.11 µM (active) and the AC50 [15] was 16.8 µM (active). The EC50 (BJ [16]) was 1.65 µM (active).
With c1ccc(-c2noc(-c3ccc4c(c3)OCO4)n2)nc1 the IC50 (Estrogen receptor beta [17]) was 37.8 µM (not active), the EC50 (BJ [9]) was 1.47 µM (active) and the EC50 (BJ [10]) was > 133 µM (inactive). For the same compound, the IC50 (Estrogen receptor beta [18]) was > 109 µM (not active), the EC50 [12] was 1.67 µM (active) and the IC50 [19] was > 80 µM (inactive). For the same compound, the EC50 (BJ [13]) was 2.1 µM (inconclusive), the EC50 [20] was 0.105 µM (active) and the EC50 [21] was 1.1 µM (active). For the same compound, the EC50 (BJ [16]) was 6.29 µM (inconclusive).
For CCc1ccc(OCCNc2cc(N3CCNC(C)C3)ccc2[N+](=O)[O-])cc1 (stereo not given), the EC50 (Melanocortin receptor 4) was > 89.2 µM (inactive), the IC50 (cells) was 24 µM (active) and the CC50 [22] was 12.4 µM (active). The CC50 [23] was 13.9 µM (active), the IC50 (Nonstructural protein 1) was 37.4 µM (active) and the AC50 [14] was 15.6 µM (active). For the same compound, the CC50 [24] was 12.4 µM (active), the AC50 [15] was 7.97 µM (active) and the IC50 [25] was > 20 µM (inactive).
For CCOC(=O)c1cnc2c(c(C)nn2C)c1Oc1ccc(Cl)cc1, the IC50 [6] was 3.54 µM (active).
For CC(C1SC(=S)NC1=O)C1SC(=S)NC1=O (stereo not given), the IC50 [26] was 80 µM (inactive), the IC50 (Prothrombin) was 52.4 µM (active) and the IC50 [3] was 45.4 µM (active). For the same compound, the IC50 [4] was > 100 µM (inactive).
In the case of O=C(c1ccccc1)N1CCCC(c2nc(O)c3nnn(Cc4ccccc4)c3n2)C1 (stereo not given), the IC50 (Coagulation factor XII) is reported as > 50 µM (inactive).
With CC1(C)CC(=O)C(/C=N/CC2CCN(C(=O)Cc3ccccc3)CC2)=C(O)C1 the IC50 (Prothrombin) was > 100 µM (inactive), the IC50 [3] was > 100 µM (inactive) and the IC50 [4] was > 100 µM (inactive).
With CC(=NNc1nc2ccccc2s1)c1ncccn1 the IC50 (Vero [27]) was > 25 µM (active), the CC50 (Vero [11]) was 9.06 µM (active) and the AC50 (HEK293) was 14 µM (active). For the same compound, the IC50 (Nonstructural protein 1) was 5.05 µM (active) and the AC50 [28] was 1.61 µM (active).
In the case of O=C(OCC(=O)c1c[nH]c2ccccc12)c1cccc(O)c1, the EC50 [29] is reported as 12.3 µM (active), the EC50 (H4) is reported as 8.02 µM (active) and the IC50 [30] is reported as > 64 µM (inactive). The IC50 [31] was 15.8 µM (active) and the EC50 [32] was 5.16 µM (active).
With CCN(C(C)=O)c1cnc(C=NNC(N)=S)c2ccccc12 the IC50 (Nonstructural protein 1) was 6.69 µM (active).
